Laboratory results: patent US11865086B2, “Cinnamaldehyde derivative compounds and methods of use for cinnamaldehyde derivative compounds nicotine cessation” (Pacific University, priority 2018, dated 2024)
Entries after “also recorded” stand apart in the source; their conditions may differ. Blank lines part the entries; values can stand above or below the compound they belong to.

Tests used:
[1] = molecular target: T1, CYP2A6 (Homo sapiens, UniProt P11509); assay: in vitro
T1 sequence (P11509 1-494): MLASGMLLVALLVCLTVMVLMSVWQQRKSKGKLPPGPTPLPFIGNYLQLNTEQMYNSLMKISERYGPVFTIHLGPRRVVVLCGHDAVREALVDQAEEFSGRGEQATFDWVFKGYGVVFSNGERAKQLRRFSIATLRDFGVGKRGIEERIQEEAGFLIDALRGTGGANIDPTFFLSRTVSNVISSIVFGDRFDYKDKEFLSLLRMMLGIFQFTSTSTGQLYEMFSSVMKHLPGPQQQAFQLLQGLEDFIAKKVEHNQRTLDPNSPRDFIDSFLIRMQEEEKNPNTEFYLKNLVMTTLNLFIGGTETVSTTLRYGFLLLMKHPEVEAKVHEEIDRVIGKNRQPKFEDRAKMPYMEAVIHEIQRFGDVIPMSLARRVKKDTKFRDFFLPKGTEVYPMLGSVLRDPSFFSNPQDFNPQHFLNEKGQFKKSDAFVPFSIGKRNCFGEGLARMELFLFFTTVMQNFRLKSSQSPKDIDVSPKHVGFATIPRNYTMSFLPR
Description: (§1) Since this type of inhibition also requires that the inhibitor is initially metabolized by the target enzyme, MBIs may be identified by evaluating the inhibition in the presence and absence of cofactors that are required for activity, such as NADPH for CYPs.

[2] = molecular target: T1, CYP2A6; assay: biochemical
Description: as §1

[3] = molecular target: T1, CYP2A6; assay: biochemical; remark: listed apart in the source
Description: (§2) A 96-well plate assay and fluorescence spectroscopy may be used to quantify the product, 7-hydroxycoumarin.
Data was fit using GraphPad Prism.

[4] = molecular target: T1, CYP2A6; assay: Time-dependent inhibition screen, recombinant CYP2A6 system, coumarin hydroxylase readout; conditions: for Fold difference (with respect to CA): kinact/kI relative to t-CA; for kinact / kinact/kI: Table 5; for time-dependent inhibition of CYP2A6, result in words: with NADPH, 7-hydroxycoumarin formation
Description: as §1

[5] = molecular target: T2, CYP2A6-mediated nicotine metabolism (Homo sapiens, UniProt P11509); assay: Model (Equation 2) predicting change in nicotine AUC from mechanism-based inhibition parameters; conditions: Table 5, predicted nicotine AUC
T2 sequence (P11509 1-494): T1 sequence (P11509 1-494)

[6] = molecular target: T3, CYP2A6 (Homo sapiens, UniProt P11509, K28S/Q25K/Q26K/R27T/W24A); assay: biochemical
T3 sequence (P11509 with tags, fused parts or gaps limits assumed): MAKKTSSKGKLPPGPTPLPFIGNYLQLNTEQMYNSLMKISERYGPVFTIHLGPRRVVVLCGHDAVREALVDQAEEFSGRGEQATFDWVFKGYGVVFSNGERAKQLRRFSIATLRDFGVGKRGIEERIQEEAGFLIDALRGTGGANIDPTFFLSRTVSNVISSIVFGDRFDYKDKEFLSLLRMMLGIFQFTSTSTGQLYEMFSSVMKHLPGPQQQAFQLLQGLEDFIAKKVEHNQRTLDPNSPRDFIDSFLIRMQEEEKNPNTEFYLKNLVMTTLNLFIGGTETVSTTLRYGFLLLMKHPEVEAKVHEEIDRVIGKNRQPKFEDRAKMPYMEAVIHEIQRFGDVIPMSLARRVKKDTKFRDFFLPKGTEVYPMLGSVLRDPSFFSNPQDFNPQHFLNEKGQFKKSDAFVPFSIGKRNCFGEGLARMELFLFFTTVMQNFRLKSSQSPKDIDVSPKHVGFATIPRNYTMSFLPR
Description: (§3) Spectral binding studies were conducted using purified heterologously expressed CYP2A6 in Escherichia coli. […] Absorbance changes (A386-A418) may be plotted against added ligand concentrations in order to determine dissociation constants.
(§4) In more detail, the CYP2A6 enzyme may be heterologously expressed in Escherichia coli and purified. The expression vector, pKK2A6dH may be used to express the enzyme. The vector contains a cDNA sequence that codes for human CYP2A6 with a deletion of the N-terminal transmembrane sequence, an alteration of several residues at the modified N-terminus to increase expression, and four histidine residues added at the C-terminus to aid in purification. […] Expression from the vector may be induced with the addition of IPTG to bacterial cultures. δ-Aminolevulinic acid is added during expression to supplement heme biosynthesis. The enzyme may be purified following previously reported protocols. Briefly, following cell disruption, the solubilized enzyme may be purified using Ni^2+-affinity chromatography and cation-exchange (CM sepharose) chromatography, which may lead to protein of high purity and P450 content.

[7] = obtained from PubChem and ChemSpider; cited from earlier work
[8] = molecular target: T3, CYP2A6; assay: Spectral ligand binding (KS) to purified CYP2A6 expressed in Escherichia coli; conditions: read-out: Ks
Description: as §3, §4

[9] = molecular target: T1, CYP2A6; assay: IC50 for inhibition of CYP2A6, coumarin hydroxylase activity (7-hydroxycoumarin fluorescence); conditions: Table 1B, structural analogs of CA
Description: as §2
Data was fit using GraphPad Prism.

[10] = molecular target: T4, recombinant CYP2A13 (Homo sapiens, UniProt Q16696); assay: Time-dependent inhibition, recombinant CYP2A13 system, coumarin hydroxylase readout; type: biochemical
T4 sequence (Q16696 1-494): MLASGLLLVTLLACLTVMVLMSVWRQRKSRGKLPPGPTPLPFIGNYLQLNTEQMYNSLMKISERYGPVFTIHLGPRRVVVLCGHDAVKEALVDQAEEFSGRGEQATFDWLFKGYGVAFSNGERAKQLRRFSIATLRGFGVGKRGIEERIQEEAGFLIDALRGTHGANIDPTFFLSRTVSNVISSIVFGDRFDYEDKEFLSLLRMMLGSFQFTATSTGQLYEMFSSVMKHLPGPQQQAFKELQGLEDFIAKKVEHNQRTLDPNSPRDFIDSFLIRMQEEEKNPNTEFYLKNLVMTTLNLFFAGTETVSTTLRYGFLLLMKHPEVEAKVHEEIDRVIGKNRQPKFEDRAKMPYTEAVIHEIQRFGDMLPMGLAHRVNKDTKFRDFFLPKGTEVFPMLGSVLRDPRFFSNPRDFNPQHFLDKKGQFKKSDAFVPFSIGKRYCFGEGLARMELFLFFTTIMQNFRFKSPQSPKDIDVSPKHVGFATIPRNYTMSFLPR
Description: The above-discussed approach regarding evaluation of selectivity, potency and inhibition parameters of human CYP2A6 by t-CA and structural analogs thereof may be similarly applied to evaluation of the same parameters with regard to CYP2A13.

[11] = recombinant CYP2A6, probe coumarin

kinact [1, 11]: 0.00065 s⁻¹
kinact/KI [1, 11]: 7 M⁻¹ s⁻¹
Ki [2]: 92.1 µM
IC50 [3]: 308 µM
Fold difference (with respect to CA) [4]: 0.29
SMILES: O=CC=Cc1ccc([N+](=O)[O-])cc1 [4-nitro-CA, 4-nitrocinnamaldehyde]

SMILES: O=C/C(Br)=C/c1ccccc1 [α-bromo-CA, α-bromocinnamaldehyde]
AUC fold increase [5]: 1.35-1.84
kinact [1, 11]: 0.000283 s⁻¹
kinact/KI [1, 11]: 7.83 M⁻¹ s⁻¹
Kd [6]: 8.2 µM
Log P [7]: 2.7
Ki [2]: 36.3 µM
IC50 [3]: 2.8 µM
kinact [4]: .017 min⁻¹
kinact/kI [4]: 0.000463
Fold difference (with respect to CA) [4]: 0.32
time-dependent inhibition of CYP2A6, result in words [4]: less potency as compared to t-CA

Kd [8]: 36.8 µM
time-dependent inhibition of CYP2A6, result in words [4]: not to be time-dependent inhibitors
SMILES: CCCCC(C=O)=Cc1ccccc1 [α-butyl-CA]

SMILES: O=C/C=C/c1ccc(Cl)cc1 [4-chloro-CA]
Kd [8]: 48.9 µM
IC50 [9]: 30.1 µM

SMILES: CCN(CC)c1ccc(/C=C/C=O)cc1 [4-diethylamino-CA]
IC50 [9]: 451 µM

SMILES: O=C/C=C/c1ccc(Br)cc1 [4-bromo-CA]
IC50 [9]: 58.1 µM

SMILES: OC/C=C/c1ccccc1 [cinnamic alcohol, reference compound]
IC50 [3]: 354 ± 4.4 µM

time-dependent inhibition of CYP2A6, result in words [4]: not to be time-dependent inhibitors
SMILES: O=C/C=C/c1ccccc1O [2-hydroxy-t-CA]

SMILES: CN(C)c1ccc(/C=C/C=O)cc1 [4-dimethylamino-CA]
IC50 [9]: 100 µM

Kd [6]: 6.8 µM
IC50 [3]: 5.3 µM
time-dependent inhibition of CYP2A6, result in words [4]: not to be time-dependent inhibitors
SMILES: CC(C=O)=Cc1ccccc1 [α-methyl-CA, α-methyl-cinnamaldehyde]
time-dependent inhibition of CYP2A6, result in words ([4]; listed as α-methyl-cinnamaldehyde): not be a time-dependent inhibitor of CYP2A6

SMILES: C/C(C=O)=C\c1ccc(C(C)(C)C)cc1 [4-t-butyl-α-methyl-CA]
IC50 [9]: 348 µM

Kd [8]: 3.2 µM
time-dependent inhibition of CYP2A6, result in words [4]: not to be time-dependent inhibitors
SMILES: CC(C)C(C=O)=Cc1ccccc1 [α-isopropyl-CA]

IC50 [3]: 8 µM
SMILES: ON=CC=Cc1ccccc1 [Cinnamaldehyde oxime]

SMILES: O=CCCc1ccccc1 [hydro-CA, hydrocinnamaldehyde]
AUC fold increase [5]: 1.71-2.67
kinact ([1]; recombinant enzyme): 0.00193 s⁻¹
kinact/KI ([1]; recombinant enzyme): 22.7 M⁻¹ s⁻¹
Kd [6]: 44.8 µM
Ki [2]: 85 µM
IC50 [3]: 48.3 µM
kinact [4]: .116 min⁻¹
kinact/kI [4]: 0.001365
Fold difference (with respect to CA) [4]: 0.96
time-dependent inhibition of CYP2A6, result in words [4]: not to be time-dependent inhibitors

kinact [1, 11]: 0.00405 s⁻¹
kinact/KI [1, 11]: 207 M⁻¹ s⁻¹
Ki [2]: 19.6 µM
Fold difference (with respect to CA) [4]: 8.7
time-dependent inhibition of CYP2A6, result in words [4]: more potent inhibitors than t-CA
SMILES: CC(C=O)=Cc1ccccc1[N+](=O)[O-] [o-nitro-α-methyl-CA, 2-nitro-α-methylcinnamaldehyde]

SMILES: N#CC=Cc1ccccc1 [cinnamonitrile]
IC50 [3]: 8.8 µM

SMILES: CCCCC/C(C=O)=C/c1ccccc1 [α-amyl-CA]
IC50 [9]: 65 µM
time-dependent inhibition of CYP2A6, result in words [4]: not to be time-dependent inhibitors

Kd [6]: 1.6 µM
SMILES: COc1ccccc1C=CC=O [o-methoxycinnamaldehyde, 2-methoxycinnamaldehyde]

time-dependent inhibition of CYP2A6, result in words [4]: not to be time-dependent inhibitors
SMILES: Cc1ccccc1C=CC=O [2-methyl-CA]

SMILES: CCCCCC/C(C=O)=C\c1ccccc1 [α-hexyl-CA]
IC50 [9]: 64.7 µM
time-dependent inhibition of CYP2A6, result in words [4]: not to be time-dependent inhibitors

time-dependent inhibition of CYP2A6, result in words [4]: not to be time-dependent inhibitors
SMILES: O=CC(F)=Cc1ccccc1 [α-fluoro-CA]

kinact [1, 11]: 0.00372 s⁻¹
kinact/KI [1, 11]: 267 M⁻¹ s⁻¹
Kd [6]: 47.5 µM
Ki [2]: 13.9 µM
IC50 [3]: 15.1 µM
Ki [10]: 30.9 µM
kinact [10]: 0.00203 s⁻¹
kinact/KI [10]: 67.8 M⁻¹ s⁻¹
Fold difference (with respect to CA) [4]: 11.2
time-dependent inhibition of CYP2A6, result in words [4]: more potent inhibitors than t-CA
SMILES: O=CC=Cc1ccccc1[N+](=O)[O-] [2-nitro-CA, 2-nitrocinnamaldehyde]

IC50 [3]: > 2500 µM
SMILES: O=C(O)/C=C/c1ccccc1 [cinnamic acid, reference compound]

Kd [8]: 7.8 µM
time-dependent inhibition of CYP2A6, result in words [4]: not to be time-dependent inhibitors
SMILES: CCCC(C=O)=Cc1ccccc1 [α-propyl-CA]

IC50 [9]: 148 µM
SMILES: O=CC=C(c1ccccc1)c1ccccc1 [β-phenyl CA]

Kd [8]: 3 µM
time-dependent inhibition of CYP2A6, result in words [4]: not to be time-dependent inhibitors
SMILES: CCC(C=O)=Cc1ccccc1 [α-ethyl-CA]

AUC fold increase [5]: 2.44-4.22
kinact [1, 11]: 0.0025 s⁻¹
kinact/KI [1, 11]: 733 M⁻¹ s⁻¹
Kd [6]: 9.6 µM
Ki [2]: 3.4 µM
IC50 [3]: 3.3 µM
kinact [4]: .15 min⁻¹
kinact/kI [4]: 0.04399
Fold difference (with respect to CA) [4]: 30.7
Fold difference (with respect to CA) ([4]; listed as α-chloro-cinnamaldehyde): over 30
SMILES: O=CC(Cl)=Cc1ccccc1 [α-chloro-CA, α-chlorocinnamaldehyde]
time-dependent inhibition of CYP2A6, result in words [4]: substantially more potent time-dependent inhibitor of CYP2A6 than t-CA; also recorded: more potent inhibitors than t-CA

kinact [1, 11]: 0.00237 s⁻¹
kinact/KI [1, 11]: 45 M⁻¹ s⁻¹
Ki [2]: 52.6 µM
Fold difference (with respect to CA) [4]: 1.9
time-dependent inhibition of CYP2A6, result in words [4]: more potent inhibitors than t-CA
SMILES: O=CC=Cc1ccccc1C(F)(F)F [o-trifluoromethyl-CA, 2-trifluoromethylcinnamaldehyde]

kinact [1, 11]: 0.00407 s⁻¹
kinact/KI [1, 11]: 86.2 M⁻¹ s⁻¹
Kd [6]: 7.8 µM
Ki [2]: 47.2 µM
IC50 [3]: 3.9 µM
Fold difference (with respect to CA) [4]: 3.6
time-dependent inhibition of CYP2A6, result in words [4]: more potent inhibitors than t-CA
SMILES: O=C/C=C/c1c(F)cccc1F [2,6-difluoro-CA, 2,6-difluorocinnamaldehyde]
Log P [7]: 2.3

SMILES: O=C/C=C/c1ccc(F)cc1 [4-fluoro-CA]
IC50 [9]: 30.1 µM

kinact [1, 11]: 0.00138 s⁻¹
kinact/KI [1, 11]: 15.5 M⁻¹ s⁻¹
Ki [2]: 89.6 µM
IC50 [3]: 410 µM
Fold difference (with respect to CA) [4]: 0.65
SMILES: O=CC=Cc1cccc([N+](=O)[O-])c1 [3-nitro-CA, 3-nitrocinnamaldehyde]
